For one compound, Activity results are on record in ChEMBL document CHEMBL4433214, “Investigation around the Oxadiazole Core in the Discovery of a New Chemotype of Potent and Selective FXR Antagonists” (ACS Med Chem Lett, 2019).

SMILES strings stand for the structures. Activity calls are given as the source filed them. The calls are words filed in the database; no cut-off is given here.

In the assay the target is T1, Bile acid receptor (Homo sapiens) (UniProt Q96RI1).
T1 sequence (whole entry): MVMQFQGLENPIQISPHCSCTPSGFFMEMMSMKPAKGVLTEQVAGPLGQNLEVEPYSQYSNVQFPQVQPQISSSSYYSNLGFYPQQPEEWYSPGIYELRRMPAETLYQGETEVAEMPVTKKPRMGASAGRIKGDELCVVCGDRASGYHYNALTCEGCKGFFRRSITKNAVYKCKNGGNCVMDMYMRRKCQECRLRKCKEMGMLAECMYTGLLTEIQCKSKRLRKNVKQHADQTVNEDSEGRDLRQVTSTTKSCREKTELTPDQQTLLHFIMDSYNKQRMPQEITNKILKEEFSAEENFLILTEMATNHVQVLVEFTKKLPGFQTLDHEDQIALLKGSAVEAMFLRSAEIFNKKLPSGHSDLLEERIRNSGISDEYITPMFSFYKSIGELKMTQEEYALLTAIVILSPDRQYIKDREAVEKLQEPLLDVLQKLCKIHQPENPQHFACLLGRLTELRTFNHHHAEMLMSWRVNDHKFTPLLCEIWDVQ
The experiment in a line: Antagonist activity at human FXR in HepG2 cells assessed as reversal of CDCA-induced increase in […] mRNA expression level at 0.1 to 1 uM dosed after 24 hrs starvation followed by CDCA addition and measured after 18 hrs by RT-PCR analysis.

`c1ccc2cc(-c3noc(C4CCNCC4)n3)ccc2c1`: the result was Active.
